Paper PMC3770654, “Gastric Antimicrobial Peptides Fail to Eradicate Helicobacter pylori Infection Due to Selective Induction and Resistance” (PLoS ONE, 2013)
Like-named read-outs stand apart in the source and are kept apart here. No end group written: not given here.

Columns and labels:
E. coli ATCC 25922 [1] = assay: Flow cytometric viability assay with membrane potential sensitive dye DiBAC4(3); format: cell-based; details: 20 µg/ml peptide, 1.5x10^6 bacteria/ml in Schaedler Broth 1:6, 37°C, 90 minutes, then DiBAC4(3) 10 minutes, 10000 events
Description: (§1) The clinical isolate H. pylori KaE1 and the reference strains H. pylori DSM 9691, DSM 10242 and DSM 21031 were tested for susceptibility towards defensins, LL37 and elafin (amino acid sequences Table S1). The strain H. pylori DSM 10242 is positive for the virulence factors VacA and CagA. As control strain for antimicrobial activity served the sensitive E. coli ATCC 25922.
(§2) Bacterial viability after incubation with antimicrobial peptides or biopsy extracts was analyzed with the membrane potential sensitive dye DiBAC4(3) (bis-(1,3-dibutylbarbituric acid) trimethine oxonol) (Invitrogen, Carlsbad, CA, USA) as described previously. Briefly, 1.5x10^6 mid-logarithmic-phase bacteria/ml of H. pylori or E. coli in Schaedler Broth 1:6 were incubated with 20 µg/ml HBD1-4 (Peptide Institute, Osaka, Japan), elafin (Proteo Biotech, Kiel, Germany for FACS analysis and RDA and elafin from Peptide Institute, Osaka for CFU determination), with LL37 (Innovagen, Lund, Sweden) or with 10 µg total protein of antrum biopsy extracts at 37°C. After 90 minutes 1 µg/ml DiBAC4(3) was added to the suspensions and further incubated for 10 minutes. Then, the suspensions were centrifuged with 4500 x g for 10 minutes, pellets resuspended in 300 µl PBS and bacterial fluorescence was analyzed by a FACSCalibur^TM (BD, Sparks, USA), using Cell Quest software (BD, Sparks, USA). In each sample 10000 bacterial events were analyzed for green fluorescence and the antimicrobial activity was determined as percentage of depolarized, fluorescent bacteria. Inhibition of bacterial growth was tested by plating aliquots on Columbia blood agar and incubating at 37 C° for 2 days in a microaerophilic atmosphere with CampyGen (Oxoid, Hampshire, UK). Then colony forming units (CFU) were counted.

[2] = system: H. pylori KaE1, DSM 9691, DSM 10242 and DSM 21031; assay: Flow cytometric viability assay with DiBAC4(3), four H. pylori strains; format: cell-based; details: all 4 H. pylori strains; 20 µg/ml peptide, Schaedler Broth 1:6, 37°C, 90 minutes, DiBAC4(3)
Description: as §1
(§3) H. pylori strains were cultured on Columbia blood agar at 37 C° for 2 days in a microaerophilic atmosphere with CampyGen (Oxoid, Hampshire, UK). Subsequently the bacteria were suspended in Schaedler Broth (BD, Sparks, USA) diluted 1:6 with aqua dest. for incubation with antimicrobial peptides.
as §2

H. pylori DMS 9691 = assay: Plating on Columbia blood agar with CFU counting; format: cell-based; details: peptide 20 µg/ml, means of two independent experiments, control 8.85 x 10^5
Description: as §3, §2

H. pylori DSM 10242 [3] = assay: Plating on Columbia blood agar with CFU counting; format: cell-based; details: peptide 20 µg/ml, means of two independent experiments, control 6.10 x 10^5
Description: as §3, §2

H. pylori DSM 21031 [4] = assay: Plating on Columbia blood agar with CFU counting; format: cell-based; details: peptide 20 µg/ml, means of two independent experiments, control 7.45 x 10^5
Description: as §3, §2

H. pylori KaE = assay: Plating on Columbia blood agar with CFU counting; format: cell-based; details: peptide 20 µg/ml, means of two independent experiments, control 1.42 x 10^6
Description: as §3, §2

[5] = system: H. pylori KaE1, DSM 9691, DSM 10242 and DSM 21031; assay: Radial diffusion assay, four H. pylori strains; format: cell-based; details: 20 µg peptide per well, 3 days, 37 °C; for zones of inhibition in radial diffusion assay: all four Helicobacter strains, microaerophilic
Description: (§4) Additionally to determine inhibition of bacterial growth we performed radial diffusion assays with a modified protocol of the procedure from Robert Lehrer et al.. Briefly, H. pylori was grown on Columbia blood agar (BD, Sparks, USA), suspended in Brain Heart Infusion diluted 1:5 with aqua dest. and plated on an agar containing 20% brain heart infusion with 5% fetal calf serum. Wells with 3 mm diameter were punched into the agar and peptides were applied equivalent to the flow cytometric assay in a concentration of 20 µg per well. The agar plates were incubated for 3 days at 37 °C in a microaerophilic atmosphere with CampyGen.

H. pylori [6] = details: cited from earlier work; for growth inhibition: ref 19 Kawauchi et al.
From the text: Previously, Hase et al. had tested two H. pylori strains against the antimicrobials HBD1, HBD2 and LL37 and […], one strain tested was resistant to HBD1, while the second strain was sensitive. […] In the study by Hase et al. […] Th ...

H. pylori DSM 10242 [7] = assay: Flow cytometric viability assay with DiBAC4(3); format: cell-based; details: 20 µg/ml peptide, 37°C, 90 minutes
Description: as §1, §3
(§5) Bacterial viability after incubation with antimicrobial peptides or biopsy extracts was analyzed with the membrane potential sensitive dye DiBAC4(3) (bis-(1,3-dibutylbarbituric acid) trimethine oxonol) (Invitrogen, Carlsbad, CA, USA) as described previously. […] Then, the suspensions were centrifuged with 4500 x g for 10 minutes, pellets resuspended in 300 µl PBS and bacterial fluorescence was analyzed by a FACSCalibur^TM (BD, Sparks, USA), using Cell Quest software (BD, Sparks, USA). In each sample 10000 bacterial events were analyzed for green fluorescence and the antimicrobial activity was determined as percentage of depolarized, fluorescent bacteria. […] Then colony forming units (CFU) were counted.

H. pylori KaE1 [8] = assay: Flow cytometric viability assay with DiBAC4(3); format: cell-based; details: 20 µg/ml peptide, 37°C, 90 minutes
Description: as §1, §3, §5

H. pylori DSM 21031 [9] = assay: Radial diffusion assay; format: cell-based; details: 20 µg peptide per well, 3 days, 37 °C
Description: as §4

H. pylori KaE1 [10] = assay: Radial diffusion assay; format: cell-based; details: 20 µg peptide per well, 3 days, 37 °C
Description: as §4

H. pylori KaE1 [11] = assay: Transmission electron microscopy of peptide-treated bacteria; format: cell-based; details: H. pylori KaE1, 1.5x10^8 bacteria, 200 µg peptide/ml, 2 hours
Description: For electron microscopy 1.5x10^8 bacteria were incubated with 200 µg peptide/ml for 2 hours. Subsequently bacteria were fixed with Karnovsky solution, embedded in agarose, coagulated, cut in blocks and fixed once more in Karnovsky. After post fixation and embedding in glycid ether the specimen were cut with an ultra microtome. Sections of 30 nm were rinsed on copper grids and investigated with a Zeiss LIBRA 120 transmission electron microscope.

E. coli ATCC 25922 [12] = assay: Binding of antimicrobial peptides to bacterial cells (flow cytometry, Streptavidin-PE); details: 20 µg/ml biotinylated LL37 or 20 µg/ml HBD2 with biotinylated HBD2-antibody, 30 minutes
Description: (§6) To investigate whether HBD2 and LL37 bind to the bacterial cell membrane, we incubated E. coli or H. pylori in Schaedler Broth 1:6 with 20 µg/ml biotinylated LL37 (Innovagen, Lund, Sweden) or 20 µg/ml HBD2 (Peptide Institute, Osaka, Japan) for 30 minutes. After centrifugation a biotinylated HBD2-antibody was added to the in PBS resuspended pellet of the HBD2 samples (Peprotech, Hamburg, Germany). Following washing with PBS, binding of biotinylated LL37 or of the HBD2-antibody was detected with Streptavidin-PE (BD Biosciences, Heidelberg, Germany). Suspensions incubated with HBD2 antibody and Streptavidin served as control. Fluorescence 2 of 10 000 events was measured with the FACSCalibur.

H. pylori [13] = assay: as above; details: 20 µg/ml biotinylated LL37 or 20 µg/ml HBD2 with biotinylated HBD2-antibody, 30 minutes
Description: as §6

Substance | depolarized bacteria (E. coli ATCC 25922 [1]) [%] | depolarized bacteria [2] | Colony forming units (H. pylori DMS 9691) | Colony forming units (H. pylori DSM 10242 [3]) | Colony forming units (H. pylori DSM 21031 [4]) | Colony forming units (H. pylori KaE) | zones of inhibition in radial diffusion assay [5] | disintegration of bacterial cells (electron microscopy) (H. pylori KaE1 [11]) | binding to the bacterial surface (E. coli ATCC 25922 [12]) | binding to the bacterial surface (H. pylori [13]) | other results
Asp - His - Tyr - Asn - Cys - Val - Ser - Ser - Gly - Gly - Gln - Cys - Leu - Tyr - Ser - Ala - Cys - Pro - Ile - Phe - Thr - Lys - Ile - Gln - Gly - Thr - Cys - Tyr - Arg - Gly - Lys - Ala - Lys - Cys - Cys - Lys (disulfide) [HBD1, recombinant constitutive defensin HBD1 (gene name DEFB1), Peptide Institute, Osaka] | 37 | less than 5% | 8.61 x 10^5 CFU/ml | 6.85 x 10^5 CFU/ml | 7.15 x 10^5 CFU/ml | 1.32 x 10^6 CFU/ml | no zones of inhibition | – | – | – | eradication (CFU) (H. pylori [6]; 10^-5 M recombinant HBD1 in hypotonic buffer, ref 21 George et al.): absolute eradication; reduction of CFU (H. pylori [6]; 10^-7 M recombinant HBD1 in hypotonic buffer, ref 21 George et al.): about 50%
ELDRICGYGTARCRKKCRSQEYRIGRCPNTYACCLRK (disulfide (positions not given here)) [HBD4, recombinant defensin HBD4 (DEFB104A), Peptide Institute, Osaka] | 43 | – | 8.25 x 10^5 CFU/ml | 4.95 x 10^5 CFU/ml | 6.90 x 10^5 CFU/ml | 1.26 x 10^6 CFU/ml | no zones of inhibition | – | – | – | depolarization level (H. pylori DSM 10242 [7]): 12%; depolarization level (H. pylori KaE1 [8]): 8%
Gly - Ile - Gly - Asp - Pro - Val - Thr - Cys - Leu - Lys - Ser - Gly - Ala - Ile - Cys - His - Pro - Val - Phe - Cys - Pro - Arg - Arg - Tyr - Lys - Gln - Ile - Gly - Thr - Cys - Gly - Leu - Pro - Gly - Thr - Lys - Cys - Cys - Lys - Lys - Pro (disulfide) [HBD2, human beta defensin 2, recombinant inducible defensin HBD2 (DEFB4A), Peptide Institute, Osaka] | 51 | less than 5% | 7.90 x 10^5 CFU/ml | 5.92 x 10^5 CFU/ml | 6.07 x 10^5 CFU/ml | 0.89 x 10^6 CFU/ml | – | much less disintegration | accumulated on the surface | accumulated on the surface | growth in radial diffusion assay ([5]; the two other strains (not KaE1, not DSM 21031)): not influenced; zones of inhibition in radial diffusion assay (H. pylori DSM 21031 [9]): small inhibition zones; zones of inhibition in radial diffusion assay (H. pylori KaE1 [10]): small inhibition zones; growth inhibition (H. pylori [6]; 30 µg/ml HBD2): 70%; growth inhibition (H. pylori [6]; 50 µg/ml HBD2): complete inhibition; effect on bacterial viability (H. pylori [6]; ref 20 Hase et al.): no effect on bacterial viability
Gly - Ile - Ile - Asn - Thr - Leu - Gln - Lys - Tyr - Tyr - Cys - Arg - Val - Arg - Gly - Gly - Arg - Cys - Ala - Val - Leu - Ser - Cys - Leu - Pro - Lys - Glu - Glu - Gln - Ile - Gly - Lys - Cys - Ser - Thr - Arg - Gly - Arg - Lys - Cys - Cys - Arg - Arg - Lys - Lys (disulfide) [HBD3, recombinant inducible defensin HBD3 (DEFB103A), Peptide Institute, Osaka] | 90 | 34-78% | 0.20 x 10^5 CFU/ml | 1.14 x 10^5 CFU/ml | 1.55 x 10^5 CFU/ml | 0.08 x 10^6 CFU/ml | pronounced zones | more pronounced disintegration | – | – | effectiveness against H. pylori among defensins (H. pylori [6]; ref 21 George et al.): most effective against H. pylori
Leu - Leu - Gly - Asp - Phe - Phe - Arg - Lys - Ser - Lys - Glu - Lys - Ile - Gly - Lys - Glu - Phe - Lys - Arg - Ile - Val - Gln - Arg - Ile - Lys - Asp - Phe - Leu - Arg - Asn - Leu - Val - Pro - Arg - Thr - Glu - Ser [LL37, amphipathic α-helical cathelicidin LL37 (CAMP), Innovagen, Lund] | 87 | 62-85% | 0.35 x 10^5 CFU/ml | 0.15 x 10^5 CFU/ml | 0.41 x 10^5 CFU/ml | 0.09 x 10^6 CFU/ml | pronounced zones | – | accumulated on the surface | accumulated on the surface | –
